Key:
Assay in all cases: biochemical
[1] = target: T1, 371 kinases (kinase named in each endpoint) (Homo sapiens, UniProt P08922); conditions: ROS/ROS1
T1 construct: purchased Reaction Biology

[2] = target: T2, 371 kinases (kinase named in each endpoint) (Homo sapiens, UniProt P41240); conditions: CSK
T2 construct: purchased Reaction Biology

[3] = target: T3, 371 kinases (kinase named in each endpoint) (Homo sapiens, UniProt Q56UN5); conditions: YSK4/MAP3K19
T3 construct: purchased Reaction Biology

[4] = target: T4, 371 kinases (kinase named in each endpoint) (Homo sapiens, UniProt P22607); conditions: FGFR3
T4 construct: purchased Reaction Biology

[5] = target: T5, 371 kinases (kinase named in each endpoint) (Homo sapiens, UniProt P49137); conditions: MAPKAPK2
T5 construct: purchased Reaction Biology

[6] = target: T6, 371 kinases (kinase named in each endpoint) (Homo sapiens, UniProt Q9Y2U5); conditions: MEKK2
T6 construct: purchased Reaction Biology

[7] = target: T7, 371 kinases (kinase named in each endpoint) (Homo sapiens, UniProt Q86V86); conditions: PIM3
T7 construct: purchased Reaction Biology

[8] = target: T8, 371 kinases (kinase named in each endpoint) (Homo sapiens, UniProt Q6VAB6); conditions: KSR2
T8 construct: purchased Reaction Biology

[9] = target: T9, 371 kinases (kinase named in each endpoint) (Homo sapiens, UniProt Q9NQU5); conditions: PAK6
T9 construct: purchased Reaction Biology

[10] = target: T10, 371 kinases (kinase named in each endpoint) (Homo sapiens, UniProt Q9P286); conditions: PAK5
T10 construct: purchased Reaction Biology

[11] = target: T11, 371 kinases (kinase named in each endpoint) (Homo sapiens, UniProt Q96SB4); conditions: SRPK1
T11 construct: purchased Reaction Biology

[12] = target: T12, 371 kinases (kinase named in each endpoint) (Homo sapiens, UniProt P51813); conditions: BMX/ETK
T12 construct: purchased Reaction Biology

[13] = target: T13, 371 kinases (kinase named in each endpoint) (Homo sapiens, UniProt Q8N752); conditions: CK1A1L
T13 construct: purchased Reaction Biology

[14] = target: T14, 371 kinases (kinase named in each endpoint) (Homo sapiens, UniProt Q13873); conditions: BMPR2
T14 construct: purchased Reaction Biology

[15] = target: T15, 371 kinases (kinase named in each endpoint) (Homo sapiens, UniProt P41743); conditions: PKCIOTA
T15 construct: purchased Reaction Biology

[16] = target: T16, 371 kinases (kinase named in each endpoint) (Homo sapiens, UniProt P11362); conditions: FGFR1
T16 construct: purchased Reaction Biology

[17] = target: T17, 371 kinases (kinase named in each endpoint) (Homo sapiens, UniProt P80192); conditions: MLK1/MAP3K9
T17 construct: purchased Reaction Biology

[18] = target: T18, 371 kinases (kinase named in each endpoint) (Homo sapiens, UniProt O00238); conditions: ALK6/BMPR1B
T18 construct: purchased Reaction Biology

[19] = target: T19, 371 kinases (kinase named in each endpoint) (Homo sapiens, UniProt Q9UPZ9); conditions: LCK2/ICK
T19 construct: purchased Reaction Biology

[20] = target: T20, 371 kinases (kinase named in each endpoint) (Homo sapiens, UniProt Q13557); conditions: CAMK2D
T20 construct: purchased Reaction Biology

[21] = target: T21, 371 kinases (kinase named in each endpoint) (Homo sapiens, UniProt Q9BYT3); conditions: STK33
T21 construct: purchased Reaction Biology

[22] = target: T22, 371 kinases (kinase named in each endpoint) (Homo sapiens, UniProt Q8N4C8); conditions: MINK/MINK1
T22 construct: purchased Reaction Biology

[23] = target: T23, 371 kinases (kinase named in each endpoint) (Homo sapiens, UniProt P20794); conditions: MAK
T23 construct: purchased Reaction Biology

[24] = target: T24, 371 kinases (kinase named in each endpoint) (Homo sapiens, UniProt P16234); conditions: PDGFRA
T24 construct: purchased Reaction Biology

[25] = target: T25, 371 kinases (kinase named in each endpoint) (Homo sapiens, UniProt Q9UL54); conditions: TAOK2/TAO1
T25 construct: purchased Reaction Biology

[26] = target: T26, 371 kinases (kinase named in each endpoint) (Homo sapiens, UniProt Q9UBE8); conditions: NLK
T26 construct: purchased Reaction Biology

[27] = target: T27, 371 kinases (kinase named in each endpoint) (Homo sapiens, UniProt O96017); conditions: CHK2
T27 construct: purchased Reaction Biology

[28] = target: T28, 371 kinases (kinase named in each endpoint) (Homo sapiens, UniProt Q9UIK4); conditions: DAPK2
T28 construct: purchased Reaction Biology

[29] = target: T29, 371 kinases (kinase named in each endpoint) (Homo sapiens, UniProt P07333); conditions: FMS
T29 construct: purchased Reaction Biology

[30] = target: T30, 371 kinases (kinase named in each endpoint) (Homo sapiens, UniProt P29323); conditions: EPHB2
T30 construct: purchased Reaction Biology

[31] = target: T31, 371 kinases (kinase named in each endpoint) (Homo sapiens, UniProt P53667); conditions: LIMK1
T31 construct: purchased Reaction Biology

[32] = target: T32, 371 kinases (kinase named in each endpoint) (Homo sapiens, UniProt P45984); conditions: JNK2
T32 construct: purchased Reaction Biology

[33] = target: T33, 371 kinases (kinase named in each endpoint) (Homo sapiens, UniProt P42685); conditions: FRK/PTK5
T33 construct: purchased Reaction Biology

[34] = target: T34, 371 kinases (kinase named in each endpoint) (Homo sapiens, UniProt O43293); conditions: ZIPK/DAPK3
T34 construct: purchased Reaction Biology

[35] = target: T35, 371 kinases (kinase named in each endpoint) (Homo sapiens, UniProt Q00536); conditions: CDK16/CYCLIN Y (PCTAIRE)
T35 construct: purchased Reaction Biology

[36] = target: T36, 371 kinases (kinase named in each endpoint) (Homo sapiens, UniProt Q6PHR2); conditions: ULK3
T36 construct: purchased Reaction Biology

[37] = target: T37, 371 kinases (kinase named in each endpoint) (Homo sapiens, UniProt O14757); conditions: CHK1
T37 construct: purchased Reaction Biology

T35 sequence (Q00536 whole entry): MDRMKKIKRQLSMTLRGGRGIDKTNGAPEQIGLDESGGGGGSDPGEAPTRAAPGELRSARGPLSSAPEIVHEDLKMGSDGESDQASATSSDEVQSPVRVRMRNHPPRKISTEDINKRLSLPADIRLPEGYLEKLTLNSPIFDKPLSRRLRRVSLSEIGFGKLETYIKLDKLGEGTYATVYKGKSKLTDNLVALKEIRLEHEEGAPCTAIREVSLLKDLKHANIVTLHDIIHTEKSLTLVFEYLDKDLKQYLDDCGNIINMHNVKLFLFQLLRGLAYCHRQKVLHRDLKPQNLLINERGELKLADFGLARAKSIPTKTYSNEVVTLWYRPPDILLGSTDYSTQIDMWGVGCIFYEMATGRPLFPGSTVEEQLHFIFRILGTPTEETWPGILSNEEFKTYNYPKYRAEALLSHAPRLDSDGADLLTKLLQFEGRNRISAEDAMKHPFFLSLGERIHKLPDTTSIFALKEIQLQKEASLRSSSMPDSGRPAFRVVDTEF
T28 sequence (Q9UIK4 whole entry): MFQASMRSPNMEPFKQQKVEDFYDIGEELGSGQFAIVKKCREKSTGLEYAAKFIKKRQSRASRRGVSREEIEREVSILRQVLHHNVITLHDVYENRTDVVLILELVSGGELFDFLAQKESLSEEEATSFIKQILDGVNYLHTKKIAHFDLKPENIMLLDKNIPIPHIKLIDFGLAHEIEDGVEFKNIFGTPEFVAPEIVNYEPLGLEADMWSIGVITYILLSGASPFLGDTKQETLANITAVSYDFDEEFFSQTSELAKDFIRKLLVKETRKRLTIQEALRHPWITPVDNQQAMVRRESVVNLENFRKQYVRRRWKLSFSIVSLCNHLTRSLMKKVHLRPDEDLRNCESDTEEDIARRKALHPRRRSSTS
T20 sequence (Q13557 whole entry): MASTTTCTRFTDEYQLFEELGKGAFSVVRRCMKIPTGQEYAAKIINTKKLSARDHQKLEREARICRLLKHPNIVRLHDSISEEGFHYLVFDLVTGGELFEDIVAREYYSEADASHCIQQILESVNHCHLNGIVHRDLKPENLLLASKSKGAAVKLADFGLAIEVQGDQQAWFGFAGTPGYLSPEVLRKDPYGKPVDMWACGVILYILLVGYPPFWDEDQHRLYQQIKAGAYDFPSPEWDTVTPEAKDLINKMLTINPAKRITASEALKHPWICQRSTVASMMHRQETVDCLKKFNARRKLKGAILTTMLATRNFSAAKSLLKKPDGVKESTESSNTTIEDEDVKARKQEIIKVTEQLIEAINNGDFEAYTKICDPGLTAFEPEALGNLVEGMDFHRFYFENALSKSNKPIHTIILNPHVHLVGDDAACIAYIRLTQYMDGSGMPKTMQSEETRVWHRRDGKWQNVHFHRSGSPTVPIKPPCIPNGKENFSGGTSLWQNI
T17 sequence (P80192 whole entry): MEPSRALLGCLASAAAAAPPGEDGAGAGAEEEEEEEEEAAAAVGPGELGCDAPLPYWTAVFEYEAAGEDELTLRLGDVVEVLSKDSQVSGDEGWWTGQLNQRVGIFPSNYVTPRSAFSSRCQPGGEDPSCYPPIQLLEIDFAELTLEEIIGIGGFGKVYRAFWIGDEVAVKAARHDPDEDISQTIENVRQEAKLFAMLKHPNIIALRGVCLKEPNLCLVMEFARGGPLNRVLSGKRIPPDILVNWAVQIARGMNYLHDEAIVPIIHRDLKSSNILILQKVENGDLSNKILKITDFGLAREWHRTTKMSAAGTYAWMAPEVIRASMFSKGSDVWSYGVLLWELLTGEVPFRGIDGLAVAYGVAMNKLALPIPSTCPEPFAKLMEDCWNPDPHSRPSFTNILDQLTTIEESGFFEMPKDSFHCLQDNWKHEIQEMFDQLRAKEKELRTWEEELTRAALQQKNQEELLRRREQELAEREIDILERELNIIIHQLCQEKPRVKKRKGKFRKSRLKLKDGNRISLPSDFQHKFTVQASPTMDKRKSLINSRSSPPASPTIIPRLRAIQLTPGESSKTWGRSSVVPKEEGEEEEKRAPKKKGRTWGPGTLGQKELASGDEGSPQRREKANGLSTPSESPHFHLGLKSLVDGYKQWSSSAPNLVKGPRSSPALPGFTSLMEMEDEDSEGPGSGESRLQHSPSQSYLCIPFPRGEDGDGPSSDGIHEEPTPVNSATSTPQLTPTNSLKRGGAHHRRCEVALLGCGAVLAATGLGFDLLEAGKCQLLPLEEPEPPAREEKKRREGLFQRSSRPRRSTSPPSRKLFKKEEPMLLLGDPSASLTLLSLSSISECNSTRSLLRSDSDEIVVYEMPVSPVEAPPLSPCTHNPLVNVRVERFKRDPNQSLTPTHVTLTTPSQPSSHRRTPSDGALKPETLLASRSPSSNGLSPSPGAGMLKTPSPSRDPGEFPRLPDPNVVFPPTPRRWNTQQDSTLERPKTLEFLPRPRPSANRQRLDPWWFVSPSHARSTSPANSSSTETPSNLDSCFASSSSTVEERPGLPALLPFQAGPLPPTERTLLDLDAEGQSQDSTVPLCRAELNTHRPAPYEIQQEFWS
T16 sequence (P11362 22-822): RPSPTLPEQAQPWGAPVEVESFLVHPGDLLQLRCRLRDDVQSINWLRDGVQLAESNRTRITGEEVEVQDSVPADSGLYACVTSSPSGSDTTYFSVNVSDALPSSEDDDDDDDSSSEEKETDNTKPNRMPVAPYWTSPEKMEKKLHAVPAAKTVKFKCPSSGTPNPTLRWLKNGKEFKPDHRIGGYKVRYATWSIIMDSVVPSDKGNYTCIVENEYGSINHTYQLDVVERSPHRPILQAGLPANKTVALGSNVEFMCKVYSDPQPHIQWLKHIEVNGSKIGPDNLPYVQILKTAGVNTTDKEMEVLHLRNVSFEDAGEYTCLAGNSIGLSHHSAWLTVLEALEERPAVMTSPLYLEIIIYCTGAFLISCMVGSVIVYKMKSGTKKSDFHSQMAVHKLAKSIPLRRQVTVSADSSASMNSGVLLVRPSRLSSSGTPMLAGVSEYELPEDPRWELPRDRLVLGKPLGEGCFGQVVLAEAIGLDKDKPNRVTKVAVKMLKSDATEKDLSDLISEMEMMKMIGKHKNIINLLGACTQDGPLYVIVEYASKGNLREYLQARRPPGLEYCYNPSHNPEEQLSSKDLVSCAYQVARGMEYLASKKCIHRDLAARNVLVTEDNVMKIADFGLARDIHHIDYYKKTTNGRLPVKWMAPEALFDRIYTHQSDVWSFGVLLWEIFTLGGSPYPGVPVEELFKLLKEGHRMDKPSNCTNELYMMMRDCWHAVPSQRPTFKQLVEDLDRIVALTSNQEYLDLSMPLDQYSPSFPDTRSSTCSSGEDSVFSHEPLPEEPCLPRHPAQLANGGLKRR
T23 sequence (P20794 whole entry): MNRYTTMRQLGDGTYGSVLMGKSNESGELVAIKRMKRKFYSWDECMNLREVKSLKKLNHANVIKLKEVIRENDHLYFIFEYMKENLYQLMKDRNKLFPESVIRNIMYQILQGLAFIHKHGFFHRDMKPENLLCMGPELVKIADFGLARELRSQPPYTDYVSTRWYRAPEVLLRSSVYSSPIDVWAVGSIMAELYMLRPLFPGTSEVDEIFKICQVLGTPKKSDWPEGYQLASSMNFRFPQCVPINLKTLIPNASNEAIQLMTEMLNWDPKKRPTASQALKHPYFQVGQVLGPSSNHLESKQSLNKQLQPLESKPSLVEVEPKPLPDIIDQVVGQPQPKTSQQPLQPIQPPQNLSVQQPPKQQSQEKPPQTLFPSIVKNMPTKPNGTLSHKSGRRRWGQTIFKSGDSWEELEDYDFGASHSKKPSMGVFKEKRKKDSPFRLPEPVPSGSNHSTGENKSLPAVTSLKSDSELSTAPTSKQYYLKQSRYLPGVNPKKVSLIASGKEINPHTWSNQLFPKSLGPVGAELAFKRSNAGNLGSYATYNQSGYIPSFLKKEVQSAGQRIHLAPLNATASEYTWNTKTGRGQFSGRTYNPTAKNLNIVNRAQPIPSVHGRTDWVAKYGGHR
T32 sequence (P45984 whole entry): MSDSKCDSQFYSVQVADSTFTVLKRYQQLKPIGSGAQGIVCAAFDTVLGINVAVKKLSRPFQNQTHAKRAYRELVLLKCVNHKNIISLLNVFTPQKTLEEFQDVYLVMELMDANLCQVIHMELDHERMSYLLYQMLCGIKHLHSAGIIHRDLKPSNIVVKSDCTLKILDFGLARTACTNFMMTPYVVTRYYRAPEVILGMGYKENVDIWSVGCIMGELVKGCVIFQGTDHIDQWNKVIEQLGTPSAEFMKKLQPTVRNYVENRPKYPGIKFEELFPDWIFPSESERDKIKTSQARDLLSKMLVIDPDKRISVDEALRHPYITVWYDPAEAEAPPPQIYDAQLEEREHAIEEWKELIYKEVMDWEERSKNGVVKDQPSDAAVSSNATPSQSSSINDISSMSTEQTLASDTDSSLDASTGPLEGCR
T12 sequence (P51813 whole entry): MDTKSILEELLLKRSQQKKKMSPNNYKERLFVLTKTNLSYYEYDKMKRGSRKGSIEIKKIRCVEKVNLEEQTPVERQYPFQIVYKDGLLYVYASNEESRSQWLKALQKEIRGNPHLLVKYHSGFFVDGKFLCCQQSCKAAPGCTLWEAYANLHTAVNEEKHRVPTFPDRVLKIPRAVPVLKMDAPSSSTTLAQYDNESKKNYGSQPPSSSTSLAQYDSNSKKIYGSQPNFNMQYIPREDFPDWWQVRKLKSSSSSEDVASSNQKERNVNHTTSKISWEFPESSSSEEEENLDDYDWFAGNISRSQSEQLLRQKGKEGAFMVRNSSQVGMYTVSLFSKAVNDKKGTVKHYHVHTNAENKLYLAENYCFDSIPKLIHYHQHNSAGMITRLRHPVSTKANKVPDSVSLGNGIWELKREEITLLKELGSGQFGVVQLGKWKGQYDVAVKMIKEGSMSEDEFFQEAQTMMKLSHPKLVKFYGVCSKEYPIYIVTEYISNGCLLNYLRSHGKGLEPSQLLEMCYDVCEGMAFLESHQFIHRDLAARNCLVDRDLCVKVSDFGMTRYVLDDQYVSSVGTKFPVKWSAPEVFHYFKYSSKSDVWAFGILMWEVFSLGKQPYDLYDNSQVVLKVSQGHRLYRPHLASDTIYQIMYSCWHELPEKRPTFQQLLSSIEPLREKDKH

In the case of `O=C(O)c1cc(C(F)(F)F)ccc1NCCc1c[nH]c2cc(Br)ccc12` [Compound 5, 2-((2-(6-Bromo-1H-indol-3-yl)ethyl)amino)−5-(trifluoromethyl)benzoic Acid], the activity at 10 µM [1] is reported as 94.7 ± 1.4%, the activity at 10 µM [2] is reported as 100.9 ± 0.9% and the activity at 10 µM [3] is reported as 110.3 ± 0.7%. It also gave an activity at 10 µM [4] of 90.7 ± 1.5%, an activity at 10 µM [5] of 95.2 ± 1.8% and an activity at 10 µM [6] of 107.9 ± 0.2%. It also gave an activity at 10 µM [7] of 20.6 ± 1%, an activity at 10 µM [8] of 83.3 ± 1.5% and an activity at 10 µM [9] of 244 ± 9%. For the same compound, the activity at 10 µM [10] was 101.2 ± 0.3%, the activity at 10 µM [11] was 91.3 ± 0.5% and the activity at 10 µM [12] was 101.8 ± 0.4%. The activity at 10 µM [13] was 90.8 ± 1.1%, the activity at 10 µM [14] was 88 ± 5.4% and the activity at 10 µM [15] was 96.8 ± 0.8%. For the same compound, the activity at 10 µM [16] was 102.6 ± 0.3%, the activity at 10 µM [17] was 95.8 ± 0.2% and the activity at 10 µM [18] was 96.7 ± 0.2%. The activity at 10 µM [19] was 98.2 ± 1.3%, the activity at 10 µM [20] was 78.3 ± 3.4% and the activity at 10 µM [21] was 85.1 ± 4.1%. It also gave an activity at 10 µM [22] of 86.9 ± 0.4%, an activity at 10 µM [23] of 81.6 ± 0.5% and an activity at 10 µM [24] of 86.9 ± 0.2%. The activity at 10 µM [25] was 100.9 ± 0.2%, the activity at 10 µM [26] was 81.4 ± 4.1% and the activity at 10 µM [27] was 90.2 ± 1.5%. The activity at 10 µM [28] was 78.8 ± 0.4%, the activity at 10 µM [29] was 98 ± 1.7% and the activity at 10 µM [30] was 89.8%. It also gave an activity at 10 µM [31] of 84.2%, an activity at 10 µM [32] of 89.6 ± 0.4% and an activity at 10 µM [33] of 90.1 ± 1.1%. The activity at 10 µM [34] was 74.5 ± 3.3%, the activity at 10 µM [35] was 76.9 ± 0.5% and the activity at 10 µM [36] was 89.9 ± 1.4%. For the same compound, the activity at 10 µM [37] was 95.2 ± 1.2%.

Reference: article PMC10239507, “Development of allosteric and selective CDK2 inhibitors for contraception with negative cooperativity to cyclin binding” (Nature Communications, 2023)
